Common to all, as to assay type: functional
The subject of assay [1] is Rhizoctonia solani. Put plainly: Fungicidal activity against Rhizoctonia solani ET0007 assessed as mycelial growth inhibition at 25 mg/L after 1 day. The following applies: ET0007, 24 h, read-out: GI.
Assay [2] concerns Cercospora beticola. Put plainly: Fungicidal activity against Cercospora beticola Be-2-6 assessed as mycelial growth inhibition at 25 mg/L after 7 days. Particulars: Be-2-6, 168 h, read-out: GI.
Assay [3] has as its system Microdochium nivale. Nature of the assay: Fungicidal activity against Microdochium nivale IFO-7432 assessed as mycelial growth inhibition at 25 mg/L after 3 days. The following applies: IFO-7432, 72 h, read-out: GI.
Assay [4] has as its system Fusarium graminearum. Put plainly: Fungicidal activity against Fusarium graminearum H3 assessed as mycelial growth inhibition at 25 mg/L after 3 days. The following applies: H3, 72 h, read-out: GI.
In assay [5] the test system is Alternaria alternata. Nature of the assay: Fungicidal activity against Alternaria alternata APS-38 assessed as mycelial growth inhibition at 25 mg/L after 3 days. The following applies: APS-38, 72 h, read-out: GI.
For assay [6], the system named is Pyrenophora graminea. Nature of the assay: Fungicidal activity against Pyrenophora graminea IFO-7507 assessed as mycelial growth inhibition at 25 mg/L after 3 days. Particulars: IFO-7507, 72 h, read-out: GI.
For assay [7], the system named is Gaeumannomyces graminis. Nature of the assay: Fungicidal activity against Gaeumannomyces graminis MAFF305168 assessed as mycelial growth inhibition at 25 mg/L after 1 day. Particulars: MAFF305168, 24 h, read-out: GI.
For assay [8], the system named is Rhynchosporium secalis. Put plainly: Fungicidal activity against Rhynchosporium secalis IFO-5290 assessed as mycelial growth inhibition at 25 mg/L after 14 days. Particulars: IFO-5290, 336 h, read-out: GI.
Assay [9] deals with Zymoseptoria tritici. Put plainly: Fungicidal activity against Zymoseptoria tritici S3 assessed as mycelial growth inhibition at 25 mg/L after 14 days. The following applies: S3, 336 h, read-out: GI.

Take `Cc1cc(=O)n(C(=O)C#Cc2ccccc2)o1`: the inhibition of growth at 25 µg/mL in assay [1] turned out to be 17%; in assay [2], 88%; in assay [3] it was 41%; in [4] it was 23%; in assay [5], 72%; in assay [6] it was 73%. For the same compound, the inhibition of growth at 25 µg/mL in [7] was determined as 3%; in [8] it was 98%; in [9], 83%.
With `Cc1cc(=O)n(C(=O)C2(c3ccccc3)CC2(Cl)Cl)o1` (configuration not stated), the inhibition of growth at 25 µg/mL stood at 46% in [1]; 85% in assay [2]; 58% in assay [3]; 32% in [4]; 50% in assay [5]; 89% in assay [6]. The inhibition of growth at 25 µg/mL is 9% in [7], 99% in assay [8] and 69% in assay [9].
On to `Cc1cc(=O)n(C(=O)C2(C)C(C)(C)C2(Cl)Cl)o1` (configuration not stated), for which the inhibition of growth at 25 µg/mL in [1] stood at 24%; in assay [2], 80%; in assay [3], 36%; in [4] it was 20%; in assay [5] it was 31%; in [6], 79%. Besides, the inhibition of growth at 25 µg/mL in assay [7] came out at 0%; in assay [8] it was 87%; in [9], 50%.
Consider `Cc1cc(=O)n(C(=O)C2CCc3ccccc3C2)o1` (configuration not stated), for which the inhibition of growth at 25 µg/mL turned out to be 50% in assay [1]; 80% in assay [2]; 82% in assay [3]; 40% in [4]; 64% in assay [5]; 73% in assay [6]. Further, the inhibition of growth at 25 µg/mL in assay [7] was determined as 57%; in assay [8], 100%; in assay [9], 95%.
Turning to `Cc1cc(=O)n(C(=O)/C=C/c2ccoc2)o1`, the inhibition of growth at 25 µg/mL in [1] is 90%; in assay [2], 91%; in assay [3], 68%; in assay [4], 44%; in [5] it was 60%; in assay [6], 96%. The inhibition of growth at 25 µg/mL turned out to be 72% in assay [7], 100% in assay [8] and 53% in assay [9].
As for `Cc1cc(=O)n(C(=O)/C=C/c2cccs2)o1`, the inhibition of growth at 25 µg/mL in [1] is 75%; in assay [2], 77%; in assay [3] it was 60%; in assay [4], 40%; in assay [5] it was 54%; in [6] it was 89%. For the same compound, the inhibition of growth at 25 µg/mL in assay [7] amounted to 16%; in assay [8], 100%; in assay [9], 78%.
As to `Cc1cc(=O)n(C(=O)/C=C/c2ccsc2)o1`, the inhibition of growth at 25 µg/mL was 100% in [1]; 90% in assay [2]; 69% in [3]; 32% in [4]; 50% in assay [5]; 97% in assay [6]. The inhibition of growth at 25 µg/mL in [7] worked out at 45%; in [8], 100%; in assay [9], 61%.
As for `Cc1cc(=O)n(C(=O)CCCCC(=O)n2oc(C)cc2=O)o1`, the inhibition of growth at 25 µg/mL worked out at 18% in assay [1]; 93% in [2]; 61% in assay [3]; 27% in assay [4]; 81% in [5]; 91% in [6]. The inhibition of growth at 25 µg/mL in assay [7] amounted to 56%; in assay [8], 100%; in assay [9], 52%.

Values taken from ChEMBL document CHEMBL3044528, “Potential new fungicides: N-acyl-5-methyl-3(2H)-isoxazolone derivatives” (2012).
